Measurements as given in patent US8697708B2, “Azabenzothiazole compounds, compositions and methods of use” (F. Hoffmann-La Roche AG, priority 2010, dated 2014).
Counter-ions that a name gives are not always drawn.

Molecular target: TYK2 (Homo sapiens (Human), UniProt P29597)
Assay: JAK1, JAK2 and TYK2 Inhibition Assay Protocol (Example A): TYK2 kinase domain, Caliper LabChip peptide phosphorylation
Assay type: biochemical
Conditions: isolated TYK2 kinase domain, 1 nM enzyme, 25 μM ATP, Morrison tight binding model
Protocol: The activity of the isolated JAK1, JAK2 or TYK2 kinase domain was measured by monitoring phosphorylation of a peptide derived from JAK3 (Val-Ala-Leu-Val-Asp-Gly-Tyr-Phe-Arg-Leu-Thr-Thr) fluorescently labeled on the N-terminus with 5-carboxyfluorescein using the Caliper LabChip technology (Caliper Life Sciences, Hopkinton, Mass.). […] Reactions were incubated at 22° C. in 384-well polypropylene microtiter plates for 30 minutes and then stopped by addition of 25 μL of an EDTA containing solution (100 mM Hepes pH 7.2, 0.015% Brij-35, 150 mM EDTA), resulting in a final EDTA concentration of 50 mM. After termination of the kinase reaction, the proportion of phosphorylated product was determined as a fraction of total peptide substrate using the Caliper LabChip 3000 according to the manufacturer's specifications. Ki values were then determined using the Morrison tight binding model. Morrison, J. F., Biochim. Biophys. Acta. 185:269-296 (1969); William, J. W. and Morrison, J. F., Meth. Enzymol., 63:437-467 (1979).

Sequence of TYK2 (P29597 897-1176): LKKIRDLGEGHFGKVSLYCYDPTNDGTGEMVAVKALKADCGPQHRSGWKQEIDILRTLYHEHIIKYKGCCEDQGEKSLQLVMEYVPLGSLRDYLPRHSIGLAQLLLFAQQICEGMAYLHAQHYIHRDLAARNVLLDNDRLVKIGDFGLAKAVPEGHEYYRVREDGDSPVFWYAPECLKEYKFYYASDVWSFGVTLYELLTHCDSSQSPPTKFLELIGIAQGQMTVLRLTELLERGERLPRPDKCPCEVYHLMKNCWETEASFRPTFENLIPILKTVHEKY

| SMILES | Ki |
| --- | --- |
| O=C(Nc1nccc2nc(-c3c(Cl)cccc3Cl)sc12)C1CC1 [Example 2, N-(2-(2,6-Dichlorophenyl)thiazolo[5,4-c]pyridin-4-yl)cyclopropanecarboxamide] | 0.5 nM |
| O=C(CO)Nc1nccc2nc(-c3c(Cl)cccc3Cl)sc12 [Example 10, N-(2-(2,6-Dichlorophenyl)thiazolo[5,4-c]pyridin-4-yl)-2-hydroxyacetamide] | 23 nM |
| O=C(Nc1nccc2nc(-c3c(F)cccc3Cl)sc12)NC1CC1 [Example 16, 1-(2-(2-Chloro-6-fluorophenyl)thiazolo[5,4-c]pyridin-4-yl)-3-cyclopropylurea] | 1.4 nM |
| OCc1ccnc(Nc2nccc3nc(-c4c(Cl)cccc4Cl)sc23)c1 [Example 18, (2-(2-(2,6-dichlorophenyl)thiazolo[5,4-c]pyridin-4-ylamino)pyridin-4-yl)methanol] | 0.3 nM |
| Cc1cc(Nc2nccc3nc(-c4c(Cl)cc(CO)cc4Cl)sc23)ncn1 [Example 22, {3,5-Dichloro-4-[4-(6-methyl-pyrimidin-4-ylamino)-thiazolo[5,4-c]pyridin-2-yl]-phenyl}-methanol] | 1 nM |
| O=C(Nc1ncnc2nc(-c3c(Cl)cccc3Cl)sc12)C1CC1 [Example 24, N-(2-(2,6-dichlorophenyl)thiazolo[4,5-d]pyrimidin-7-yl)cyclopropanecarboxamide] | 6.2 nM |
| Cc1cc(Nc2nccc3nc(-c4ccccc4Cl)sc23)nc(C)n1 [Example 56, 2-(2-chlorophenyl)-N-(2,6-dimethylpyrimidin-4-yl)thiazolo[5,4-c]pyridin-4-amine] | 8.6 nM |
| CCc1cc(Nc2nccc3nc(-c4c(Cl)cc(C(N)=O)cc4Cl)sc23)ncn1 [Example 129, 3,5-Dichloro-4-[4-(6-ethylpyrimidin-4-ylamino)thiazolo[5,4-c]pyridin-2-yl]-benzamide] | 1.6 nM |
| Cc1cc(Nc2nccc3nc(-c4c(Cl)cc(C5CC5)cc4Cl)sc23)ncn1 [Example 138, [2-(2,6-Dichloro-4-cyclopropylphenyl)thiazolo[5,4-c]pyridin-4-yl]-(6-methylpyrimidin-4-yl)-amine] | 4.1 nM |
| N#Cc1cc(Cl)c(-c2nc3c(F)cnc(NC(=O)C4CC4)c3s2)c(Cl)c1 [Example 213, Cyclopropane-carboxylic acid [2-(2,6-dichloro-4-cyano-phenyl)-7-fluorothiazolo[5,4-c]pyridin-4-yl]-amide] | 1.5 nM |
| N#Cc1cnc(Nc2cc(N)ncn2)c2sc(-c3c(F)cccc3Cl)nc12 [Example 223, 4-(6-aminopyrimidin-4-ylamino)-2-(2-chloro-6-fluorophenyl) thiazolo[5,4-c] pyridine-7-carbonitrile] | 0.4 nM |
| N#Cc1cccc(F)c1-c1nc2c(C#N)cnc(Nc3cc(N)ncn3)c2s1 [Example 224, 4-(6-aminopyrimidin-4-ylamino)-2-(2-cyano-6-fluorophenyl) thiazolo[5,4-c] pyridine-7-carbonitrile] | 0.3 nM |
| Cc1cc(Nc2nccc3nc(-c4c(C#N)cc(C#N)cc4C#N)sc23)nc(C)n1 [Example 227, 2-(4-(2,6-dimethylpyrimidin-4-ylamino)thiazolo[5,4-c]pyridin-2-yl)benzene-1,3,5-tricarbonitrile] | 0.8 nM |
| Cc1nc(CO)cc(Nc2nccc3nc(-c4c(Cl)cccc4C#N)sc23)n1 [Example 236, 3-Chloro-2-[4-(6-hydroxy-methyl-2-methyl-pyrimidin-4-ylamino)-thiazolo[5,4-c]pyridin-2-yl]-benzonitrile hydrochloride salt] | 0.5 nM |
